Test system: cataracts in rats
Test: Prevention or retardation of cataracts in galactose-fed rats
Type: in vivo, rat
Details: 30% galactose diet, A,C,E 0.0025%, B,D 0.01%
Procedure: The compounds to be tested were:
Test compound/diet mixtures were formulated as follows: […]
Similarly, the 0.01% level was designed to provide a drug concentration of 20 mg per kilogram per day.
All animals were fed the Purina Laboratory Chow and water, ad libitum for a two day acclimatization period. The indicated test compound/diet mixture then was introduced to all animals on Study Day 1 and the animals were maintained on this diet throughout thirty days of the study.
Sufficient amounts of test compound/diet mixture were maintained in the food hoppers to allow the animals to eat ad libitum. All aliquots of test compound/diet mixture added to the food hoopers were weighed and the weights, as well as day of addition, recorded.
Twelve animals were assigned to each treatment with each compound at the indicated percentage by total weight of feed. All eyes were examined with a handheld ophthalmoscope and/or penlight.

Structure (SMILES): O=C1NC(=O)C2(CCOc3ccc(F)cc32)N1 (stereo not drawn) [E]
- % of Total Eyes, + (vacuole) (Study Day 2): 0%
- % of Total Eyes, - (Normal) (Study Day 2): 100.0%
- % of Total Eyes, N (nuclear cataract) (Study Day 2): 0%
- % of Total Eyes, S (snowflake) (Study Day 2): 0%
- Number of Eyes Observed, + (vacuole) (Study Day 2): 0 eyes
- Number of Eyes Observed, - (Normal) (Study Day 2): 24 eyes
- Number of Eyes Observed, N (nuclear cataract) (Study Day 2): 0 eyes
- Number of Eyes Observed, S (snowflake) (Study Day 2): 0 eyes
- Number of Eyes Observed, ± (Study Day 2): 0 eyes
- % of Total Eyes, + (vacuole) (Study Day 3): 0%
- % of Total Eyes, - (Normal) (Study Day 3): 100.0%
- % of Total Eyes, N (nuclear cataract) (Study Day 3): 0%
- % of Total Eyes, S (snowflake) (Study Day 3): 0%
- Number of Eyes Observed, + (vacuole) (Study Day 3): 0 eyes
- Number of Eyes Observed, - (Normal) (Study Day 3): 24 eyes
- Number of Eyes Observed, N (nuclear cataract) (Study Day 3): 0 eyes
- Number of Eyes Observed, S (snowflake) (Study Day 3): 0 eyes
- Number of Eyes Observed, ± (Study Day 3): 0 eyes
- % of Total Eyes, + (vacuole) (Study Day 4): 0%
- % of Total Eyes, - (Normal) (Study Day 4): 100.0%
- % of Total Eyes, N (nuclear cataract) (Study Day 4): 0%
- % of Total Eyes, S (snowflake) (Study Day 4): 0%
- Number of Eyes Observed, + (vacuole) (Study Day 4): 0 eyes
- Number of Eyes Observed, - (Normal) (Study Day 4): 24 eyes
- Number of Eyes Observed, N (nuclear cataract) (Study Day 4): 0 eyes
- Number of Eyes Observed, S (snowflake) (Study Day 4): 0 eyes
- Number of Eyes Observed, ± (Study Day 4): 0 eyes
- % of Total Eyes, + (vacuole) (Study Day 5): 0%
- % of Total Eyes, - (Normal) (Study Day 5): 100.0%
- % of Total Eyes, N (nuclear cataract) (Study Day 5): 0%
- % of Total Eyes, S (snowflake) (Study Day 5): 0%
- Number of Eyes Observed, + (vacuole) (Study Day 5): 0 eyes
- Number of Eyes Observed, - (Normal) (Study Day 5): 24 eyes
- Number of Eyes Observed, N (nuclear cataract) (Study Day 5): 0 eyes
- Number of Eyes Observed, S (snowflake) (Study Day 5): 0 eyes
- Number of Eyes Observed, ± (Study Day 5): 0 eyes
- % of Total Eyes, + (vacuole) (Study Day 6): 0%
- % of Total Eyes, - (Normal) (Study Day 6): 100.0%
- % of Total Eyes, N (nuclear cataract) (Study Day 6): 0%
- % of Total Eyes, S (snowflake) (Study Day 6): 0%
- Number of Eyes Observed, + (vacuole) (Study Day 6): 0 eyes
- Number of Eyes Observed, - (Normal) (Study Day 6): 24 eyes
- Number of Eyes Observed, N (nuclear cataract) (Study Day 6): 0 eyes
- Number of Eyes Observed, S (snowflake) (Study Day 6): 0 eyes
- Number of Eyes Observed, ± (Study Day 6): 0 eyes
- % of Total Eyes, + (vacuole) (Study Day 8): 0%
- % of Total Eyes, - (Normal) (Study Day 8): 100.0%
- % of Total Eyes, N (nuclear cataract) (Study Day 8): 0%
- % of Total Eyes, S (snowflake) (Study Day 8): 0%
- Number of Eyes Observed, + (vacuole) (Study Day 8): 0 eyes
- Number of Eyes Observed, - (Normal) (Study Day 8): 24 eyes
- Number of Eyes Observed, N (nuclear cataract) (Study Day 8): 0 eyes
- Number of Eyes Observed, S (snowflake) (Study Day 8): 0 eyes
- Number of Eyes Observed, ± (Study Day 8): 0 eyes
- % of Total Eyes, + (vacuole) (Study Day 10): 0%
- % of Total Eyes, - (Normal) (Study Day 10): 100.0%
- % of Total Eyes, N (nuclear cataract) (Study Day 10): 0%
- % of Total Eyes, S (snowflake) (Study Day 10): 0%
- Number of Eyes Observed, + (vacuole) (Study Day 10): 0 eyes
- Number of Eyes Observed, - (Normal) (Study Day 10): 24 eyes
- Number of Eyes Observed, N (nuclear cataract) (Study Day 10): 0 eyes
- Number of Eyes Observed, S (snowflake) (Study Day 10): 0 eyes
- Number of Eyes Observed, ± (Study Day 10): 0 eyes
- % of Total Eyes, + (vacuole) (Study Day 12): 0%
- % of Total Eyes, - (Normal) (Study Day 12): 95.8%
- % of Total Eyes, N (nuclear cataract) (Study Day 12): 0%
- % of Total Eyes, S (snowflake) (Study Day 12): 0%
- Number of Eyes Observed, + (vacuole) (Study Day 12): 0 eyes
- Number of Eyes Observed, - (Normal) (Study Day 12): 23 eyes
- Number of Eyes Observed, N (nuclear cataract) (Study Day 12): 0 eyes
- Number of Eyes Observed, S (snowflake) (Study Day 12): 0 eyes
- Number of Eyes Observed, ± (Study Day 12): 1 eyes
- % of Total Eyes, + (vacuole) (Study Day 14): 0%
- % of Total Eyes, - (Normal) (Study Day 14): 87.5%
- % of Total Eyes, N (nuclear cataract) (Study Day 14): 0%
- % of Total Eyes, S (snowflake) (Study Day 14): 0%
- Number of Eyes Observed, + (vacuole) (Study Day 14): 0 eyes
- Number of Eyes Observed, - (Normal) (Study Day 14): 21 eyes
- Number of Eyes Observed, N (nuclear cataract) (Study Day 14): 0 eyes
- Number of Eyes Observed, S (snowflake) (Study Day 14): 0 eyes
- Number of Eyes Observed, ± (Study Day 14): 3 eyes
- % of Total Eyes, + (vacuole) (Study Day 16): 0%
- % of Total Eyes, - (Normal) (Study Day 16): 83.3%
- % of Total Eyes, N (nuclear cataract) (Study Day 16): 0%
- % of Total Eyes, S (snowflake) (Study Day 16): 0%
- Number of Eyes Observed, + (vacuole) (Study Day 16): 0 eyes
- Number of Eyes Observed, - (Normal) (Study Day 16): 20 eyes
- Number of Eyes Observed, N (nuclear cataract) (Study Day 16): 0 eyes
- Number of Eyes Observed, S (snowflake) (Study Day 16): 0 eyes
- Number of Eyes Observed, ± (Study Day 16): 4 eyes
- % of Total Eyes, + (vacuole) (Study Day 18): 0%
- % of Total Eyes, - (Normal) (Study Day 18): 58.4%
- % of Total Eyes, N (nuclear cataract) (Study Day 18): 0%
- % of Total Eyes, S (snowflake) (Study Day 18): 0%
- Number of Eyes Observed, + (vacuole) (Study Day 18): 0 eyes
- Number of Eyes Observed, - (Normal) (Study Day 18): 14 eyes
- Number of Eyes Observed, N (nuclear cataract) (Study Day 18): 0 eyes
- Number of Eyes Observed, S (snowflake) (Study Day 18): 0 eyes
- Number of Eyes Observed, ± (Study Day 18): 10 eyes
- % of Total Eyes, + (vacuole) (Study Day 20): 4.2%
- % of Total Eyes, - (Normal) (Study Day 20): 12.5%
- % of Total Eyes, N (nuclear cataract) (Study Day 20): 0%
- % of Total Eyes, S (snowflake) (Study Day 20): 41.6%
- Number of Eyes Observed, + (vacuole) (Study Day 20): 1 eyes
- Number of Eyes Observed, - (Normal) (Study Day 20): 3 eyes
- Number of Eyes Observed, N (nuclear cataract) (Study Day 20): 0 eyes
- Number of Eyes Observed, S (snowflake) (Study Day 20): 10 eyes
- Number of Eyes Observed, ± (Study Day 20): 10 eyes
- % of Total Eyes, + (vacuole) (Study Day 22): 8.3%
- % of Total Eyes, - (Normal) (Study Day 22): 0%
- % of Total Eyes, N (nuclear cataract) (Study Day 22): 0%
- % of Total Eyes, S (snowflake) (Study Day 22): 66.7%
- Number of Eyes Observed, + (vacuole) (Study Day 22): 2 eyes
- Number of Eyes Observed, - (Normal) (Study Day 22): 0 eyes
- Number of Eyes Observed, N (nuclear cataract) (Study Day 22): 0 eyes
- Number of Eyes Observed, S (snowflake) (Study Day 22): 16 eyes
- Number of Eyes Observed, ± (Study Day 22): 6 eyes
- % of Total Eyes, + (vacuole) (Study Day 24): 12.5%
- % of Total Eyes, - (Normal) (Study Day 24): 0%
- % of Total Eyes, N (nuclear cataract) (Study Day 24): 0%
- % of Total Eyes, S (snowflake) (Study Day 24): 83.3%
- Number of Eyes Observed, + (vacuole) (Study Day 24): 3 eyes
- Number of Eyes Observed, - (Normal) (Study Day 24): 0 eyes
- Number of Eyes Observed, N (nuclear cataract) (Study Day 24): 0 eyes
- Number of Eyes Observed, S (snowflake) (Study Day 24): 20 eyes
- Number of Eyes Observed, ± (Study Day 24): 1 eyes
- % of Total Eyes, + (vacuole) (Study Day 26): 16.7%
- % of Total Eyes, - (Normal) (Study Day 26): 0%
- % of Total Eyes, N (nuclear cataract) (Study Day 26): 0%
- % of Total Eyes, S (snowflake) (Study Day 26): 83.3%
- Number of Eyes Observed, + (vacuole) (Study Day 26): 4 eyes
- Number of Eyes Observed, - (Normal) (Study Day 26): 0 eyes
- Number of Eyes Observed, N (nuclear cataract) (Study Day 26): 0 eyes
- Number of Eyes Observed, S (snowflake) (Study Day 26): 20 eyes
- Number of Eyes Observed, ± (Study Day 26): 0 eyes
- % of Total Eyes, + (vacuole) (Study Day 28): 8.3%
- % of Total Eyes, - (Normal) (Study Day 28): 0%
- % of Total Eyes, N (nuclear cataract) (Study Day 28): 0%
- % of Total Eyes, S (snowflake) (Study Day 28): 91.7%
- Number of Eyes Observed, + (vacuole) (Study Day 28): 2 eyes
- Number of Eyes Observed, - (Normal) (Study Day 28): 0 eyes
- Number of Eyes Observed, N (nuclear cataract) (Study Day 28): 0 eyes
- Number of Eyes Observed, S (snowflake) (Study Day 28): 22 eyes
- Number of Eyes Observed, ± (Study Day 28): 0 eyes
- % of Total Eyes, + (vacuole) (Study Day 30): 4.2%
- % of Total Eyes, - (Normal) (Study Day 30): 0%
- % of Total Eyes, N (nuclear cataract) (Study Day 30): 0%
- % of Total Eyes, S (snowflake) (Study Day 30): 95.8%
- Number of Eyes Observed, + (vacuole) (Study Day 30): 1 eyes
- Number of Eyes Observed, - (Normal) (Study Day 30): 0 eyes
- Number of Eyes Observed, N (nuclear cataract) (Study Day 30): 0 eyes
- Number of Eyes Observed, S (snowflake) (Study Day 30): 23 eyes
- Number of Eyes Observed, ± (Study Day 30): 0 eyes

— US4464385A, “Treatment of diabetic complications with hydantoins” (Alcon Laboratories, Inc., priority 1982, dated 1984)
